According to US8835425B2, “Use of selective GABA A α5 negative allosteric modulators for the treatment of central nervous system conditions” (Hoffmann-La Roche Inc., priority 2010, dated 2014):
pKi: −log10 of the molar value. Read-outs that look alike come from different tables or passages of the source.

Tests used:
human GABA A α1β2/3γ2 [1] = target: T1, human GABA A α1β2/3γ2 (Homo sapiens, UniProt P14867+P18507); assay: [3H]flumazenil competition binding, HEK293 cells expressing human α1β2/3γ2; parameters: expressed in transfected cells; host or cells: HEK293; settings: for hKi α1/hKi α5: binding selectivity ratio
human GABA A α2β3γ2 [2] = target: T2, human GABA A α2β3γ2 (Homo sapiens, UniProt P18507+P47869); assay: [3H]flumazenil competition binding, HEK293 cells expressing human α2β3γ2; parameters: expressed in transfected cells; host or cells: HEK293; settings: for hKi α2/hKi α5: binding selectivity ratio
human GABA A α3β3γ2 [3] = target: T3, human GABA A α3β3γ2 (Homo sapiens, UniProt P18507+P34903); assay: [3H]flumazenil competition binding, HEK293 cells expressing human α3β3γ2; parameters: expressed in transfected cells; host or cells: HEK293; settings: for hKi α3/hKi α5: binding selectivity ratio
human GABA A α5β3γ2 [4] = target: T4, human GABA A α5β3γ2 (Homo sapiens, UniProt P18507+P31644); assay: Two-microelectrode voltage clamp, modulation of GABA EC10 response in Xenopus oocytes, α5β3γ2; type: cell-based; parameters: expressed in transfected cells; host or cells: Xenopus laevis oocytes; settings: % change of submaximal (EC10) response to GABA at 30×Ki
Experimental: (§1) Table 2b. […] Effect at human GABA A α5 receptors: % change of a submaximal (EC10) response to GABA determined at 30×Ki value from the flumazenil binding assay.
(§2) Subtype-selective effects were determined on cloned receptors expressed in Xenopus oocytes. Human recombinant GABA A receptors were expressed in Xenopus laevis oocytes. Current responses were evoked in two-microelectrode voltage-clamp condition by applying an EC10 of GABA before and during the co-application of the test compound. Response amplitudes in the presence of the test compound are expressed as percentage of the amplitudes before drug addition.

human GABA A α1β2/3γ2 [5] = target: T1, human GABA A α1β2/3γ2; assay: Two-microelectrode voltage clamp, modulation of GABA EC10 response in Xenopus oocytes, α1β2/3γ2; type: cell-based; parameters: expressed in transfected cells; host or cells: Xenopus laevis oocytes; settings: % change of EC10 GABA response at 3 μM or at 30×Ki if Ki below 0.1 μM
human GABA A α5β3γ2 [6] = target: T4, human GABA A α5β3γ2; assay: [3H]flumazenil competition binding, HEK293 cells expressing human α5β3γ2; parameters: expressed in transfected cells; host or cells: HEK293
human GABA A α2β3γ2 [7] = target: T2, human GABA A α2β3γ2; assay: Two-microelectrode voltage clamp, modulation of GABA EC10 response in Xenopus oocytes, α2β3γ2; type: cell-based; parameters: expressed in transfected cells; host or cells: Xenopus laevis oocytes; settings: % change of EC10 GABA response at 3 μM or at 30×Ki if Ki below 0.1 μM
Experimental: as §1, §2

human GABA A α3β3γ2 [8] = target: T3, human GABA A α3β3γ2; assay: Two-microelectrode voltage clamp, modulation of GABA EC10 response in Xenopus oocytes, α3β3γ2; type: cell-based; parameters: expressed in transfected cells; host or cells: Xenopus laevis oocytes; settings: % change of EC10 GABA response at 3 μM or at 30×Ki if Ki below 0.1 μM
Experimental: as §1, §2

[9] = [3H]flumazenil competition, human α5β3γ2, read-out: hKi α5
[10] = [3H]flumazenil competition, human α1β2/3γ2, read-out: hKi α1
[11] = [3H]flumazenil competition, human α2β3γ2, read-out: hKi α2
[12] = [3H]flumazenil competition, human α3β3γ2, read-out: hKi α3

Structure (SMILES)	hKi α1/hKi α5 (human GABA A α1β2/3γ2 [1])	hKi α2/hKi α5 (human GABA A α2β3γ2 [2])	hKi α3/hKi α5 (human GABA A α3β3γ2 [3])	Efficacy GABA A α5β3γ2 (human GABA A α5β3γ2 [4]) [%]	Efficacy GABA A α1β2/3γ2 (human GABA A α1β2/3γ2 [5])	pKi (human GABA A α5β3γ2 [6]; [9])	pKi (human GABA A α1β2/3γ2 [1]; [10])	pKi (human GABA A α2β3γ2 [2]; [11])	pKi (human GABA A α3β3γ2 [3]; [12])	pKi (human GABA A α5β3γ2 [6])	Efficacy GABA A α2β3γ2 (human GABA A α2β3γ2 [7])	Efficacy GABA A α3β3γ2 (human GABA A α3β3γ2 [8])	pKi (human GABA A α1β2/3γ2 [1])	pKi (human GABA A α2β3γ2 [2])	pKi (human GABA A α3β3γ2 [3])
Clc1ncn2c1Cn1ncnc1-c1ccccc1-2 [Compound 8585, 10-Chloro-9H-imidazo[1,5-a][1,2,4]triazolo[1,5-d][1,4]benzodiazepine]	14	5	2	−41	−37%										
Cc1onc(-c2ccc(Cl)cn2)c1COc1ccc(C(=O)N2CCSCC2)cn1 [Compound W1, {6-[3-(5-Chloro-pyridin-2-yl)-5-methyl-isoxazol-4-ylmethoxy]-pyridin-3-yl}-thiomorpholin-4-yl-methanone]	87	27	44			9.40	7.46	7.97	7.75						
Cc1ncn2c1Cn1nc(CN3CCCC3=O)nc1-c1cc(Br)ccc1-2 [Compound 8591, 3-Bromo-10-methyl-6-(2-oxo-pyrrolidin-1-ylmethyl)-9H-imidazo[1,5-a][1,2,4]triazolo[1,5-d][1,4]benzodiazepine]	88	94	73	−31	+4%		6.20	6.17	6.29	8.15	−7%	+23%			
Cc1onc(-c2ccc(Cl)cc2)c1COc1ccc(C(=O)N2CCOCC2)cn1 [Compound S1, {6-[3-(4-Chloro-phenyl)-5-methyl-isoxazol-4-ylmethoxy]-pyridin-3-yl}-morpholin-4-yl-methanone]	102	39	41			8.27	6.26	6.68	6.66						
Cc1nc2n(n1)Cc1c(Cl)ncn1-c1ccc(Br)cc1-2 [Compound 8589, 3-Bromo-10-chloro-6-methyl-9H-imidazo[1,5-a][1,2,4]triazolo[1,5-d][1,4]benzodiazepine]	37	37	35							8.21			6.65	6.64	6.67
Cc1onc(-c2ccccc2)c1COc1ccc(C(=O)NC(C)C)cn1 [Compound O1, N-Isopropyl-6-(5-methyl-3-phenyl-isoxazol-4-ylmethoxy)-nicotinamide]	388	77	85	−50	−19%	8.89	6.30	7.00	6.96		−34%	−43%			
Cc1onc(-c2ccc(F)cn2)c1COc1ccc(C(=O)N2CCS(=O)(=O)CC2)cn1 [Compound V1, (1,1-Dioxo-1λ,6-thiomorpholin-4-yl)-{6-[3-(5-fluoro-pyridin-2-yl)-5-methyl-isoxazol-4-ylmethoxy]-pyridin-3-yl}-methanone]	119	44	63	−33	0%	8.92	6.84	7.27	7.12		+9%	+16%			
Cc1nc2n(n1)Cc1c(CF)ncn1-c1ccc(Cl)cc1-2 [Compound 8584, 3-Chloro-10-fluoromethyl-6-methyl-9H-imidazo[1,5-a][1,2,4]triazolo[1,5-d][1,4]benzodiazepine]	50	72	47				6.90								
Cc1onc(-c2ccccn2)c1COc1ccc(C(=O)N2CCOCC2)cn1 [Compound T1, [6-(5-Methyl-3-pyridin-2-yl-isoxazol-4-ylmethoxy)-pyridin-3-yl]-morpholin-4-yl-methanone]	32	20	27	−31	−3%	7.84	6.33	6.53	6.41		+5%	+9%			
Cc1onc(-c2ccc(F)cn2)c1COc1ccc(C(=O)NC(C)C)cn1 [Compound U1]				−33	−15%						−34%	−21%			
Fc1ccc2c(c1)-c1ncnn1Cc1c(Br)ncn1-2 [Compound 8590, 10-Bromo-3-fluoro-9H-imidazo[1,5-a][1,2,4]triazolo[1,5-d][1,4]benzodiazepine]	4	7	8												
Clc1ccc2c(c1)-c1ncnn1Cc1c(Cl)ncn1-2 [Compound 8586, 3,10-Dichloro-9H-imidazo[1,5-a][1,2,4]triazolo[1,5-d][1,4]benzodiazepine]	7	12	7	−33	−5%					8.68	+2%	+7%	7.82	7.63	7.85
FCc1ncn2c1Cn1ncnc1-c1cc(F)ccc1-2 [Compound 8580, 3-Fluoro-10-fluoromethyl-9H-imidazo[1,5-a][1,2,4]triazolo[1,5-d][1,4]benzodiazepine]	5	3	3	−35									7.36		
Cc1onc(-c2ccccc2)c1COc1ccc(C(=O)N2CC3(COC3)C2)cn1 [Compound Q1, [6-(5-Methyl-3-phenyl-isoxazol-4-ylmethoxy)-pyridin-3-yl]-(2-oxa-6-aza-spiro[3.3]hept-6-yl)-methanone]	42	29	26	−35	−11%	7.82	6.20	6.36	6.40		−18%	−17%			
Cc1nc2n(n1)Cc1c(Cl)ncn1-c1ccc(C#N)cc1-2 [Compound 8587, 10-Chloro-3-cyano-6-methyl-9H-imidazo[1,5-a][1,2,4]triazolo[1,5-d][1,4]benzodiazepine]	23	13	10	−42	−28%		6.60	6.85	6.98	7.96					
N#Cc1ccc2c(c1)-c1ncnn1Cc1c(C(F)F)ncn1-2 [Compound 8582, 3-Cyano-10-difluoromethyl-9H-imidazo[1,5-a][1,2,4]triazolo[1,5-d][1,4]benzodiazepine]	16	15	6	−37	−21%		6.59								
Cc1onc(-c2ccccc2)c1COc1ccc(C(=O)N2CCn3cnnc3C2)cn1 [Compound P1, (5,6-Dihydro-8H-[1,2,4]triazolo[4,3-a]pyrazin-7-yl)-[6-(5-methyl-3-phenyl-isoxazol-4-ylmethoxy)-pyridin-3-yl]-methanone]						7.52									
FC(F)c1ccc2c(c1)-c1ncnn1Cc1c(Cl)ncn1-2 [Compound 8588, 10-Chloro-3-difluoromethyl-9H-imidazo[1,5-a][1,2,4]triazolo[1,5-d][1,4]benzodiazepine]	19	37	15												
FC(F)c1ncn2c1Cn1ncnc1-c1ccccc1-2 [Compound 8583, 10-Difluoromethyl-9H-imidazo[1,5-a][1,2,4]triazolo[1,5-d][1,4]benzodiazepine]	18	9	7												
